Source: patent publication US8829035B2, “Agent for treatment or prevention of diseases associated with activity of neurotrophic factors” (Sumitomo Chemical Company, Limited, priority 2009, dated 2014)

System: activity of 200 ng/mL of NGF (NXF promoter-driven luciferase in PC12 cells)
Experiment: Luciferase reporter assay (NXF promoter) in PC12 cells: potentiation of NGF activity
Type: cell-based, rat
Design: key: +: Showed relatively weak potentiation (potentiation only exhibited at 10 μM); ++: Showed potentiation; +++: Showed particularly strong potentiation (2-fold or greater potentiation of the activity of 200 ng/mL of NGF at 1 μM)
Conditions: Test Example 1, relative luciferase activity vs 200 ng/mL NGF alone, overnight (approx. 16 hours)
Experimental: The forward primer 5′-[…]-3′ and the reverse primer 5′-[…]-3′ were prepared as the PCR primers according to the sequence information for the NXF gene genome sequence (Accession Nos. AB054577 and NC—000085), and the PCR method was used to isolate from approximately 5 kbp upstream from the translated region of the NXF gene promoter portion to the vicinity of the transcription start site. For this, 1 μg of mouse genomic DNA (Takara) was used as the template, and the 2-step PCR reaction was carried out for 35 cycles, the conditions for which were 95° C./1 m in the denaturing step, and 68° C./8 m in the annealing and extension steps, to obtain the PCR product. The NXF promoter fragment was inserted into the SmaI site of the pGL3 Basic vector (Promega) in the upstream of luciferase gene to prepare a reporter plasmid that would express the luciferase enzyme driven by the NXF promoter.
PC12 cells (available from the ATCC) were cultured using RPMI medium (GIBCO-BRL) with 5% FCS (GIBCO-BR) and 15% horse serum (GIBCO-BRL) added, and 1 mM in sodium pyruvate (GIBCO-BRL), at 37° C. in the presence of 5% CO2. After transfection in 10^6 of these PC12 cells for 2 days with 12 μg of the above-described reporter plasmid and 1 μg of pRC/RSV vector (Invitrogen) using the Lipofectamine 2000 reagent (Invitrogen), the medium was exchanged for fresh medium containing 40 mg/L of geneticin sulfate (GIBCO), and this was cultured continuously. Culturing was continued for approximately 1 month with medium exchange of the cultured medium containing 40 mg/L of geneticin sulfate (GIBCO) every several days, with the result that multiple colonies of the obtained cells were picked up. Among these, one of the colonies that induced luciferase activity in the presence of 40 ng/mL of NGF (Wako Pure Chemicals) was selected and used for the cells to evaluate the activity of the compounds below.
These cells were set up in 96-well plates with 80% confluence, and the luciferase reporter assay was conducted using the Promega Steady Glo luciferase assay kit. The procedure was carried out overnight (approx. 16 hours) using culture medium containing the compound, and the Steady Glo substrate solution was added to the cells in half-diluted in PBS after removal of all remaining medium containing the compound. After this was allowed to stand for 30 minutes, the respective quantity of light produced was measured with a luminometer (Envision Perkin Elmer).
The activity of the compounds for evaluation was measured as the potentiation of the activity of 200 ng/mL of NGF. For the experiment control wells, the negative control well had medium containing only a final concentration of 0.1% DMSO, the positive control well had medium containing a saturation concentration of NGF. In addition, a test well was set up containing 0.1% DMSO with 200 ng/mL of NGF added corresponding to a 0 compound concentration. When its luciferase activity was taken as a standard, the relative luciferase activity could be calculated for the test wells to which the compound solution (dissolved in DMSO and prepared to have a final DMSO concentration of 0.1%) had been added in addition to the 200 ng/mL of NGF, to find the potentiation of the activity of 200 ng/mL of NGF due to that compound.

| Compound | Activity (potentiation of NGF activity) |
| --- | --- |
| c1ccc(COCc2nc3cc(-c4nc5ccccc5s4)ccc3n2-c2ccccc2)cc1 [Ex. 1, 5-(benzothiazol-2-yl)-1-phenyl-2-(phenylmethoxy)methylbenzimidazole] | + |
| COCc1nc2cc(-c3nc4ccccc4s3)ccc2n1C1CCOCC1 [Ex. 6, 5-(benzothiazol-2-yl)-2-methoxymethyl-1-(tetrahydropyran-4-yl)benzimidazole] | ++ |
| CN(C)Cc1nc2cc(-c3nc4ccccc4s3)ccc2n1C1CCOCC1 [Ex. 9, 5-(benzothiazol-2-yl)-2-(N,N-dimethylaminomethyl)-1-(tetrahydropyran-4-yl)benzimidazole] | ++ |
| Cc1nc2cc(-c3nc4ccccc4o3)ccc2n1C1CCOCC1 [Ex. 11, 5-(benzoxazol-2-yl)-2-methyl-1-(tetrahydropyran-4-yl)benzimidazole] | ++ |
| CN(C)Cc1nc2cc(-c3nc4ccccc4o3)ccc2n1C1CCOCC1 [Ex. 14, 5-(benzoxazol-2-yl)-2-(N,N-dimethylaminomethyl)-1-(tetrahydropyran-4-yl)benzimidazole] | + |
| COc1ccc(-n2c(C)nc3cc(-c4nc5ccccc5o4)ccc32)cc1 [Ex. 15, 5-(benzoxazol-2-yl)-1-(4-methoxyphenyl)-2-methylbenzimidazole] | + |
| Cc1nc2cc(-c3nc4ccccc4o3)ccc2n1C1CCCCC1 [Ex. 16, 5-(benzoxazol-2-yl)-1-cyclohexyl-2-methylbenzimidazole] | ++ |
| Cc1nc2cc(-c3nc4ccccc4o3)ccc2n1Cc1ccccc1 [Ex. 17, 5-(benzoxazol-2-yl)-1-benzyl-2-methylbenzimidazole] | ++ |
| Cc1nc2cc(-c3cc4ccccc4o3)ccc2n1C1CCOCC1 [Ex. 19, 5-(benzofuran-2-yl)-2-methyl-1-(tetrahydropyran-4-yl)benzimidazole] | ++ |
| c1ccc(-c2nc3cc(-c4nc5ccccc5o4)ccc3n2C2CCOCC2)nc1 [Ex. 21, 5-(benzoxazol-2-yl)-2-(2-pyridyl)-1-(tetrahydropyran-4-yl)benzimidazole] | ++ |
| c1ccc2oc(-c3ccc4c(c3)nc(C3CCCCC3)n4C3CCOCC3)nc2c1 [Ex. 23, 5-(benzoxazol-2-yl)-2-cyclohexyl-1-(tetrahydropyran-4-yl)benzimidazole] | ++ |
| c1cncc(-c2nc3cc(-c4nc5ccccc5o4)ccc3n2C2CCOCC2)c1 [Ex. 24, 5-(benzoxazol-2-yl)-2-(3-pyridyl)-1-(tetrahydropyran-4-yl)benzimidazole] | ++ |
| c1ccc(-c2nc3cc(-c4nc5ccccc5o4)ccc3n2C2CCOCC2)cc1 [Ex. 25, 5-(benzoxazol-2-yl)-2-phenyl-1-(tetrahydropyran-4-yl)benzimidazole] | ++ |
| c1ccc2oc(-c3ccc4c(c3)nc(-c3ccncc3)n4C3CCOCC3)nc2c1 [Ex. 26, 5-(benzoxazol-2-yl)-2-(4-pyridyl)-1-(tetrahydropyran-4-yl)benzimidazole] | ++ |
| FC(F)(F)c1nc2cc(-c3nc4ccccc4o3)ccc2n1C1CCOCC1 [Ex. 27, 5-(benzoxazol-2-yl)-1-(tetrahydropyran-4-yl)-2-trifluoromethylbenzimidazole] | ++ |
| Cc1nc2cc(-c3nc4ccccc4o3)ccc2n1C(C)(C)C [Ex. 29, 5-(benzoxazol-2-yl)-2-methyl-1-tert-butylbenzimidazole] | ++ |
| COc1ccccc1-n1c(C)nc2cc(-c3nc4ccccc4o3)ccc21 [Ex. 30, 5-(benzoxazol-2-yl)-1-(2-methoxyphenyl)-2-methylbenzimidazole] | ++ |
| COc1cccc(-n2c(C)nc3cc(-c4nc5ccccc5o4)ccc32)c1 [Ex. 31, 5-(benzoxazol-2-yl)-1-(3-methoxyphenyl)-2-methylbenzimidazole] | ++ |
